Reference: US20250179017A1 (GUANGDONG NEWOPP BIOPHARMACEUTICALS CO., LTD., priority 2022, published 2025)

Biological target: T1, human EP2 (PTGER2) (Homo sapiens, UniProt P43116)
T1 construct: Cayman Chemical (Human EP2 Reporter Assay Kit)
Assay: EP2 antagonist assay (HEK-293 CNG membrane potential cAMP assay / 293T SEAP reporter assay, PGE2-stimulated)
Format: cell-based
Conditions: EP2 antagonist activity; concentration for 50% inhibition of signal compared to DMSO
Method in brief: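 HEK-293 CNG cells expressing human EP2: compound preincubated 15 min at RT, then PGE2 at 5 nM final, 30 min; membrane-potential dye fluorescence (ex 530, em 590 nm), background-subtracted, gave IC50. Alternatively, 293T cells reverse-transfected with EP2 and CRE-SEAP, compound plus 13 nM PGE2 for 6-8 h, SEAP luminescence.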

T1 sequence (P43116 whole entry): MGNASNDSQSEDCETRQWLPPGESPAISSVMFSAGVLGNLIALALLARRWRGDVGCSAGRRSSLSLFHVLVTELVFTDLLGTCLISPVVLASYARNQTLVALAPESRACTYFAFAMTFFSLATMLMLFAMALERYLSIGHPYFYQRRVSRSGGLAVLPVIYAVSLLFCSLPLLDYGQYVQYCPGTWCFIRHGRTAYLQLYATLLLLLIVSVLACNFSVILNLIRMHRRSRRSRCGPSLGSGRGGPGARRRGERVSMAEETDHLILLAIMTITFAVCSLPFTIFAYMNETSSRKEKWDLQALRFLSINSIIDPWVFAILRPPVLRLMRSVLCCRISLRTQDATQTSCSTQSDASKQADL

Row | Structure (SMILES) | IC50 [µM]
1 | C[C@H](NC(=O)c1cc(-c2ccc(F)c(F)c2)cc2ccn(Cc3ccc(-c4ccccc4)cc3)c12)c1ccc(C(=O)O)cc1 [Example 207, (S)-4-(1-(1-([1,1′-biphenyl]-4-ylmethyl)-5-(3,4-difluorophenyl)-1H-indole-7-carboxamido)ethyl)benzoic acid] | < 0.1
2 | O=C(O)c1ccc(CNC(=O)c2cc(-c3ccc(F)cc3)cc3ccn(Cc4ccc(-c5ccccc5)cc4)c23)cc1 [Example 148, 4-((1-([1,1′-biphenyl]-4-ylmethyl)-5-(4-fluorophenyl)-1H-indole-7-carboxamido)methyl)benzoic acid] | < 0.1
3 | C[C@H](NC(=O)c1cc(-c2ccc(F)c(F)c2)cc2ccn(Cc3ccc(-c4ccc(F)cc4)cc3)c12)c1ccc(C(=O)O)cc1 [Example 215, (S)-4-(1-(5-(3,4-difluorophenyl)-1-((4′-fluoro-[1,1′-biphenyl]-4-yl)methyl)-1H-indole-7-carboxamido)ethyl)benzoic acid] | < 0.1
4 | C[C@H](NC(=O)c1cc(-c2ccc(F)cc2)cc2cnn(Cc3ccc(C(F)(F)F)cc3)c12)c1ccc(C(=O)O)cc1 [Example 194, (S)-4-(1-(5-(4-fluorophenyl)-1-(4-(trifluoromethyl)benzyl)-1H-indazole-7-carboxamido)ethyl)benzoic acid] | < 0.1
5 | O=C(O)c1ccc(CNC(=O)c2cc(Nc3ccccc3)cc3ccn(Cc4ccc(C(F)(F)F)cc4)c23)cc1 [Example 47, 4-((5-(phenylamino)-1-(4-(trifluoromethyl)benzyl)-1H-indole-7-carboxamido)methyl)benzoic acid] | ≥ 1
6 | COc1cccc(Cn2ccc3c(Nc4ccccc4)ccc(C(=O)NCc4ccc(C(=O)O)cc4)c32)c1 [Example 155, 4-((1-(3-methoxybenzyl)-4-(phenylamino)-1H-indole-7-carboxamido)methyl)benzoic acid] | < 0.1
7 | N#Cc1cccc(-c2cc(C(=O)NCc3ccc(C(=O)O)cc3)c3c(cnn3Cc3ccc(C(F)(F)F)cc3)c2)c1 [Example 98, 4-((5-(3-cyanophenyl)-1-(4-(trifluoromethyl)benzyl)-1H-indazole-7-carboxamido)methyl)benzoic acid] | < 0.1
8 | NC(=O)c1cccc(-c2cc(C(=O)NC3CC4(C3)CC(C(=O)O)C4)c3c(Sc4ccc(C(F)(F)F)cc4)c[nH]c3c2)c1 (racemic) [Example 115, (±) 6-(6-(3-carbamoylphenyl)-3-((4-(trifluoromethyl)phenyl)thio)-1H-indole-4-carboxamido)spiro[3.3]heptane-2-carboxylic acid] | 0.1 to 1
9 | C[C@@H](NC(=O)c1cc(-c2cc(F)cc(F)c2)cc2ccn(Cc3ccc(C(F)(F)F)cc3)c12)c1ccc(C(=O)O)cc1 [Example 14, (R)-4-(1-(5-(3,5-difluorophenyl)-1-(4-(trifluoromethyl)benzyl)-1H-indole-7-carboxamido)ethyl) benzoic acid] | ≥ 1
10 | Cn1cc(Sc2ccc(C(F)(F)F)cc2)c2c(C(=O)NCc3ccc(C(=O)O)cc3)cc(-c3cccc(C(N)=O)c3)cc21 [Example 121, 4-((6-(3-carbamoylphenyl)-1-methyl-3-((4-(trifluoromethyl)phenyl)thio)-1H-indole-4-carboxamido)methyl)benzoic acid] | 0.1 to 1
11 | C[C@H](NC(=O)c1cc(-c2ccc(F)c(F)c2)cc2ccn(Cc3ccc(C(F)(F)F)cc3)c12)c1ccc(C(=O)O)cc1 [Example 53] | < 0.1
12 | O=C(O)c1ccc(CNC(=O)c2cc(-c3ccc(F)cc3)cc3ccn(Cc4ccc5ccccc5n4)c23)cc1 [Example 142, 4-((5-(4-fluorophenyl)-1-(quinolin-2-ylmethyl)-1H-indole-7-carboxamido)methyl)benzoic acid] | < 0.1
13 | N#Cc1cccc(-c2cc(C(=O)NCc3ccc(C(=O)O)cc3)c3c(ccn3Cc3cccc(C(F)(F)F)c3)c2)c1 [Example 126, 4-((5-(3-cyanophenyl)-1-(3-(trifluoromethyl)benzyl)-1H-indole-7-carboxamido)methyl)benzoic acid] | < 0.1
14 | C[C@H](NC(=O)c1cc(-c2ccc(F)c(F)c2)cc2ccn(Cc3ccc4ccccc4c3)c12)c1ccc(C(=O)O)cc1 [Example 217, (S)-4-(1-(5-(3,4-difluorophenyl)-1-(naphthalen-2-ylmethyl)-1H-indole-7-carboxamido)ethyl)benzoic acid] | < 0.1

The next lines start with the values.

Row | IC50 [µM] | Structure (SMILES)
15 | ≥ 1 | C[C@@H](NC(=O)c1cc(-c2ccc(F)c(F)c2)cc2ccn(Cc3ccc(C(F)(F)F)cc3)c12)c1ccc(C(=O)O)cc1 [Example 13, (R)-4-(1-(5-(3,4-difluorophenyl)-1-(4-(trifluoromethyl)benzyl)-1H-indole-7-carboxamido)ethyl)benzoic acid]
16 | ≥ 1 | C[C@@H](NC(=O)c1cc(-c2cccc(C#N)c2)cc2ccn(Cc3ccc(C(F)(F)F)cc3)c12)c1ccc(C(=O)O)cc1 [Example 12, (R)-4-(1-(5-(3-cyanophenyl)-1-(4-(trifluoromethyl)benzyl)-1H-indole-7-carboxamido)ethyl) benzoic acid]
17 | < 0.1 | C[C@H](NC(=O)c1cc(-c2ccccc2)cc2nnn(Cc3ccc(C(F)(F)F)cc3)c12)c1ccc(C(=O)O)cc1 [Example 179, (S)-4-(1-(5-phenyl-1-(4-(trifluoromethyl)benzyl)-1H-benzo[d][1,2,3]triazole-7-carboxamido)ethyl)benzoic acid]
18 | < 0.1 | C[C@H](NC(=O)c1cc(-c2ccccc2)cc2cnn(Cc3ccc(-c4ccccc4)cc3)c12)c1ccc(C(=O)O)cc1 [Example 198, (S)-4-(1-(1-([1,1′-biphenyl]-4-ylmethyl)-5-phenyl-1H-indazole-7-carboxamido)ethyl)benzoic acid]
19 | 0.1 to 1 | O=C(O)c1ccc(C2(NC(=O)c3cc(-c4ccccc4)cc4ccn(Cc5ccc(C(F)(F)F)cc5)c34)CC2)cc1 [Example 6, 4-(1-(5-phenyl-1-(4-(trifluoromethyl)benzyl)-1H-indole-7-carboxamido)cyclopropyl)benzoiacid]
20 | < 0.1 | C[C@H](NC(=O)c1cc(-c2ccccc2)cc2ccn(Cc3ccc4ccccc4n3)c12)c1ccc(C(=O)O)cc1 [Example 143, (S)-4-(1-(5-phenyl-1-(quinolin-2-ylmethyl)-1H-indole-7-carboxamido)ethyl)benzoic acid]
21 | < 0.1 | O=C(O)c1ccc(CNC(=O)c2ccc(Nc3cccc(F)c3)c3ccn(Cc4ccc(C(F)(F)F)cc4)c23)cc1 [Example 72, 4-((4-((3-fluorophenyl)amino)-1-(4-(trifluoromethyl)benzyl)-1H-indole-7-carboxamido)methyl)benzoic acid]
22 | < 0.1 | O=C(O)c1ccc(CNC(=O)c2cc(-c3cccnc3)cc3ccn(Cc4cccc(Cl)c4)c23)cc1 [Example 104, 4-((1-(3-chlorobenzyl)-5-(pyridin-3-yl)-1H-indole-7-carboxamido)methyl)benzoic acid]
23 | ≥ 1 | C[C@@H](NC(=O)c1ccc(-c2ccc(F)cc2)c2ccn(Cc3ccc(C(F)(F)F)cc3)c12)c1ccc(C(=O)O)cc1 [Example 35, (R)-4-(1-(4-(4-fluorophenyl)-1-(4-(trifluoromethyl)benzyl)-1H-indole-7-carboxamido)ethyl)benzoic acid]
24 | < 0.1 | CS(=O)(=O)c1cccc(-c2cc(C(=O)NCc3ccc(C(=O)O)cc3)c3c(ccn3Cc3ccc(C(F)(F)F)cc3)c2)c1 [Example 84, 4-((5-(3-(methylsulfonyl)phenyl)-1-(4-(trifluoromethyl)benzyl)-1H-indole-7-carboxamido)methyl)benzoic acid]
25 | < 0.1 | C[C@H](NC(=O)c1cc(-c2cc(F)cc(F)c2)cc2ccn(Cc3cccc(Cl)c3)c12)c1ccc(C(=O)O)cc1 [Example 111, (S)-4-(1-(1-(3-chlorobenzyl)-5-(3,5-difluorophenyl)-1H-indole-7-carboxamido)ethyl)benzoic acid]
26 | < 0.1 | Cc1ccccc1-c1cc(C(=O)NCc2ccc(C(=O)O)cc2)c2c(ccn2Cc2ccc(C(F)(F)F)cc2)c1 [Example 92, 4-((5-(o-tolyl)-1-(4-(trifluoromethyl)benzyl)-1H-indole-7-carboxamido)methyl)benzoic acid]
27 | < 0.1 | O=C(O)c1ccc(CNC(=O)c2cc(-c3ccc(F)c(F)c3)cc3cnn(Cc4ccc5ccccc5c4)c23)cc1 [Example 218, 4-((5-(3,4-difluorophenyl)-1-(naphthalen-2-ylmethyl)-1H-indazole-7-carboxamido)methyl)benzoic acid]
28 | < 0.1 | O=C(O)c1ccc(C2(NC(=O)c3cc(Nc4ccccc4)cc4ccn(Cc5ccc(C(F)(F)F)cc5)c34)CC2)cc1 [Example 43, 4-(1-(5-(phenylamino)-1-(4-(trifluoromethyl)benzyl)-1H-indole-7-carboxamido)cyclopropyl)benzoic acid]
29 | < 0.1 | N#Cc1cccc(-c2cc(C(=O)NC3(c4ccc(C(=O)O)cc4)CC3)c3c(ccn3Cc3cccc(Cl)c3)c2)c1 [Example 206, 4-(1-(1-(3-chlorobenzyl)-5-(3-cyanophenyl)-1H-indole-7-carboxamido)cyclopropyl)benzoic acid]
30 | 0.1 to 1 | O=C(O)c1ccc(C2(NC(=O)c3cc(-c4ccccc4)cc4ccn(Cc5cccc(C(F)(F)F)c5)c34)CC2)cc1 [Example 131, 4-(1-(5-phenyl-1-(3-(trifluoromethyl)benzyl)-1H-indole-7-carboxamido)cyclopropyl)benzoic acid]
31 | < 0.1 | C[C@H](NC(=O)c1cc(-c2ccccc2)cc2cnn([C@H](C)c3ccc4ccccc4c3)c12)c1ccc(C(=O)O)cc1 [Example 196, 4-((S)-1-(1-((R)-1-(naphthalen-2-yl)ethyl)-5-phenyl-1H-indazole-7-carboxamido)ethyl)benzoic acid]
32 | < 0.1 | N#Cc1ccc(-c2cc(C(=O)NCc3ccc(C(=O)O)cc3)c3c(ccn3Cc3ccc(C(F)(F)F)cc3)c2)cc1 [Example 81, 4-((5-(4-cyanophenyl)-1-(4-(trifluoromethyl)benzyl)-1H-indole-7-carboxamido)methyl)benzoic acid]
